# Source: PMC12238837, “DCAF16‐Based Covalent Molecular Glues for Targeted Protein Degradation of Histone Deacetylases” (Archiv Der Pharmazie, 2025)
# Where two headings read alike, the source gives them in different places.
# Legend:
# MM.1S cells [1] = test: CellTiter-Glo cell viability assay; type: cell-based; settings: Homo sapiens, MM1.S, 72 h, read-out: IC50 cell viability
# Experimental: The MM.1S was obtained from ATCC (Manassas, VA, USA).
# (§1) For this purpose, the dilution series was prepared at 200× concentration in DMSO and then further diluted to 10× concentration in medium. The final DMSO concentration was 0.5%. The toxicity of compounds was assessed after 72 h using the CellTiter‐Glo 2.0 cell viability assay. Luminescence was then measured, and the IC50 was determined by plotting dose–response curves and performing nonlinear regression using GraphPad Prism.
# as §1, with “series were” for “series was”, “the CellTiter-Glo” for “the CellTiter‐Glo”, “plotting dose-response” for “plotting dose–response”, “GraphPad Prism.^[1]” for “GraphPad Prism.”
# HDAC3 = target: T1, HDAC3 (Homo sapiens, UniProt O15379); test: HDAC3 degradation, western blot in MM.1S cells; type: cell-based; settings: MM.1S cells, 1, 10, 25 μM
# T1 construct: endogenous in cells; host or cells: MM.1S
# Experimental: (§2) Subsequently, degrader 10a was investigated at various concentrations (1, 10, and 25 µM) for degradation effects on different HDAC isoforms, including HDAC2, HDAC3, and HDAC4. […] In detail, 10a induced a modest degradation of HDAC2 (D max = 46% at 25 μM), which may be attributed to the high structural similarity between HDAC1 and HDAC2, particularly in their catalytic domains.
# (§3) The MM.1S was obtained from ATCC (Manassas, VA, USA). MM.1S cells were cultivated in RPMI 1640 medium supplemented with 10% FBS, 100 IU/mL penicillin, 0.1 mg/mL streptomycin, and 1 mM sodium pyruvate at 37°C in a 5% CO2 atmosphere.
# (§4) The MM.1S cells (3 × 10^6 cells/mL) were seeded into cell culture flasks and, after 72 h, treated with the indicated concentration of compound or DMSO for the given time. Cell lysis was performed with Cell Extraction Buffer and the addition of Halt Protease Inhibitor Cocktail and phenylmethanesulfonyl fluoride. Protein content was determined by Pierce BCA Protein Assay Kit. Samples were denatured by Laemmli 2× Concentrate, and Precision Plus Protein Unstained Standard was used as a molecular weight marker in all cases. […] The ChemiDoc XRS+ System was used for detection, and Image Lab Software 6.1 (Bio‐Rad, Hercules, CA, USA) for quantification.
# HDAC4 = target: T2, HDAC4 (Homo sapiens, UniProt P56524); test: HDAC4 degradation, western blot in MM.1S cells; type: cell-based; settings: MM.1S cells, 1, 10, 25 μM
# T2 construct: HDAC2, HDAC3, and HDAC4 levels were detected by immunoblot analysis; endogenous in cells; host or cells: MM.1S
# Experimental: as §2, §3, §4
# [2] = target: T3, Human recombinant HDAC3/NcoR2 (Homo sapiens, UniProt O15379); test: HDAC enzyme inhibition assay (ZMAL substrate), HDAC3; type: biochemical; settings: n = 2, mean ± SD
# T3 construct: purchased BPS Bioscience 50003
# Experimental: (§5) The total assay volume of 50 μL (HDAC2/3/6 max. 1% DMSO; HDAC1 max. 5% DMSO) was incubated at 37°C for 90 min. Subsequently, 50 μL of trypsin (0.4 mg/mL) in trypsin buffer (50 mM Tris−HCl, pH 8.0, 100 mM NaCl) was added, followed by an additional 30 min of incubation at 37°C. Fluorescence (excitation λ = 355 nm, emission λ = 460 nm) was measured using a FLUOstar OPTIMA microplate reader. The IC50 was determined by plotting dose–response curves and performing nonlinear regression using GraphPad Prism.
# as §5, with “by” for “by an”, “dose response” for “dose–response”, “Prism.^[3-6]” for “Prism.”
# Human recombinant HDAC6 = target: T4, Human recombinant HDAC6 (Homo sapiens, UniProt Q9UBN7); test: HDAC enzyme inhibition assay (ZMAL substrate), HDAC6; type: biochemical; settings: n = 2, mean ± SD
# T4 construct: purchased BPS Bioscience 50006
# T4 sequence (Q9UBN7 1-1215): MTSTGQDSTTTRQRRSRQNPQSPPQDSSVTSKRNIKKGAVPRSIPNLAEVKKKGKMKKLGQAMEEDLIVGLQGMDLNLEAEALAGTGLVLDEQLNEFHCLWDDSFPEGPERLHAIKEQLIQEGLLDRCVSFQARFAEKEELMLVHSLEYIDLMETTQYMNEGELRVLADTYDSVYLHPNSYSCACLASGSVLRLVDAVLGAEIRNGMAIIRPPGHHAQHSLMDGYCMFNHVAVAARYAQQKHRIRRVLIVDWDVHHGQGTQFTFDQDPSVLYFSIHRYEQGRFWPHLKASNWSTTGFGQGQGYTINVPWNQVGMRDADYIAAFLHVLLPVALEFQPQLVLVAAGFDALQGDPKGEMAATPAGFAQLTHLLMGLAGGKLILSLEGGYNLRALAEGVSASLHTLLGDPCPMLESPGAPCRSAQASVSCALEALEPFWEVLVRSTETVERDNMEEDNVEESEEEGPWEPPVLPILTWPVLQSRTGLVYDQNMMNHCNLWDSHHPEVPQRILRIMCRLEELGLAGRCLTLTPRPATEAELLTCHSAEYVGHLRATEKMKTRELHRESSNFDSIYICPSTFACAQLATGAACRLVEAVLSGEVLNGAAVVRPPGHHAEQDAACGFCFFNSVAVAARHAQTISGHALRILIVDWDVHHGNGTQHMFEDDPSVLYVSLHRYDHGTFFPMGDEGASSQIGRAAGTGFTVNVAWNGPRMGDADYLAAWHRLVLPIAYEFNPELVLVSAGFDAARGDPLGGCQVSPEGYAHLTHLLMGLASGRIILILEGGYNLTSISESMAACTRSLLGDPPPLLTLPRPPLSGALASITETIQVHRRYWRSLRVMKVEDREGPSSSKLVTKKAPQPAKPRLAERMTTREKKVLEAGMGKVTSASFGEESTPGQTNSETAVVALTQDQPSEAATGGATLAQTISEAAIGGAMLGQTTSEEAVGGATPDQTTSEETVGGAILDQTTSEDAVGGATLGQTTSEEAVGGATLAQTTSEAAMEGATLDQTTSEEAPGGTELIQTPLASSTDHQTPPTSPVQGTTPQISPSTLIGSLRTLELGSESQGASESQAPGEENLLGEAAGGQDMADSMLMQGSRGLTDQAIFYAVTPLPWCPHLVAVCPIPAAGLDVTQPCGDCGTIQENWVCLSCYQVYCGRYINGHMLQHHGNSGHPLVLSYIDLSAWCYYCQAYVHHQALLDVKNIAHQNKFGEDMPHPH
# Experimental: as §5
# as §5, with “by” for “by an”, “dose response” for “dose–response”, “Prism.^[3-6]” for “Prism.”
# [3] = system: acetylated histone H3 (indicator of reduced HDAC1‐3 activity); test: Cellular target engagement: immunoblot of acetylated histone H3; type: cell-based; settings: MM.1S cells, 10 µM, 24 h
# Experimental: (§6) Immunoblot analysis of acetylated histone H3 (A) and α‐tubulin (B) in MM.1S cell lysates after treatment with the indicated compounds (10 µM) or vehicle (DMSO) for 24 h. Representative images from a total of n = 2 replicates.
# (§7) The MM.1S cells (3 × 10^6 cells/mL) were seeded into cell culture flasks and, after 72 h, treated with the indicated concentration of compound or DMSO for the given time. Cell lysis was performed with Cell Extraction Buffer and the addition of Halt Protease Inhibitor Cocktail and phenylmethanesulfonyl fluoride. Protein content was determined by Pierce BCA Protein Assay Kit. Samples were denatured by Laemmli 2× Concentrate, and Precision Plus Protein Unstained Standard was used as a molecular weight marker in all cases. SDS‐PAGE was performed with 10% Mini‐PROTEAN TGX Stain‐Free Gel (Catalog# 458035, Bio‐Rad, Hercules, CA, USA) at 200 V for 50 min (Catalog# 458035, Bio‐Rad). Afterwards, proteins were transferred with the Trans‐Blot Turbo Transfer System to Immobilon‐FL PVDF membranes at 1.0 A for 30 min and incubated with 5% milk‐powder solution for 1 h at room temperature under slight agitation. Subsequently, the membranes were incubated with anti‐HDAC1 (Catalog# 5356S, Cell Signaling Technology, Denver, MA, USA), anti‐HDAC2 (Catalog# 9959S, Cell Signaling Technology, Denver, MA, USA), anti‐HDAC3 (Catalog# 85057S, Cell Signaling Technology, Denver, MA, USA), anti‐HDAC4 (Catalog# 7628S, Cell Signaling Technology, Denver, MA, USA), anti‐HDAC6 (Catalog# 7558S, Cell Signaling Technology, Denver, MA, USA), anti‐acetyl‐histone H3 (Catalog# 9677S, Cell Signaling Technology, Denver, MA, USA), anti‐acetyl‐α‐tubulin (Catalog# 5335, Cell Signaling Technology, Denver, MA, USA), or anti‐GAPDH (Catalog# T0004, Affinity Biosciences, Cincinnati, OH, USA) antibody solutions in 1:1000–1:20000 dilutions at room temperature under slight agitation for 1 h, then put membranes at 4°C for overnight. […] The ChemiDoc XRS+ System was used for detection, and Image Lab Software 6.1 (Bio‐Rad, Hercules, CA, USA) for quantification.
# [4] = system: acetylated α‐tubulin (marker of decreased HDAC6 activity); test: Cellular target engagement: immunoblot of acetylated α-tubulin; type: cell-based; settings: MM.1S cells, 10 µM, 24 h
# Experimental: as §6, §7
# MM.1S cells [5] = test: Annexin V-FITC/PI apoptosis assay, flow cytometry; type: cell-based; settings: 10 μM, 48 h
# Experimental: The percentage of cells that were annexin V‐positive but PI‐negative was considered as early apoptotic, whereas the percentage of cells that were both annexin V‐ and PI‐positive was considered as late apoptotic. Data are presented as mean ± standard deviation (n = 2 biological replicates, each performed in duplicates). Statistical analysis was performed by using one‐way ANOVA in GraphPad Prism 8. Statistical significance was indicated with asterisks (****p ≤ 0.0001).
# MM.1S cells (3 × 10^5 cells/well) were seeded in 24‐well plates and treated with the indicated concentration of compound or DMSO for 48 h under cell culture conditions. Subsequently, cells were washed with cell staining buffer (HEPES 0.1 M, NaCl 1.4 M, CaCl2·3H2O 25 mM), resuspended in 300 µL, and 150 µL was transferred in a 96‐well plate.
# HDAC1 [6] = target: T5, HDAC1 (Homo sapiens, UniProt Q13547); test: HDAC enzyme inhibition assay (ZMAL substrate), HDAC1; type: biochemical; parameters: purchased BPS Bioscience 50051; settings: n = 2, mean ± SD
# Experimental: as §5
# as §5, with “by” for “by an”, “dose response” for “dose–response”, “Prism.^[3-6]” for “Prism.”
# HDAC2 [7] = target: T6, HDAC2 (Homo sapiens, UniProt Q92769); test: HDAC enzyme inhibition assay (ZMAL substrate), HDAC2; type: biochemical; parameters: purchased BPS Bioscience 50052; settings: n = 2, mean ± SD
# Experimental: as §5
# as §5, with “by” for “by an”, “dose response” for “dose–response”, “Prism.^[3-6]” for “Prism.”
# HDAC1 [8] = target: T5, HDAC1; test: HDAC1 degradation, western blot in MM.1S cells; type: cell-based; parameters: endogenous in cells; host or cells: MM.1S; settings: 24 h; for HDAC1 protein levels: immunoblot
# Experimental: First, the multiple myeloma cell line MM.1S was treated with varying concentrations (1, 10, and 25 µM) of degraders 10a–d for 6 and 24 h, respectively. HDAC1 and HDAC6 were selected for investigation due to their critical roles in various diseases such as cancer. HDAC1 and HDAC6 protein levels were subsequently evaluated using western blot analysis. […] This limited efficacy could be due to insufficient incubation time of the compounds with MM.1S cells. […] All compounds still exerted no degradation of HDAC6 at different concentrations after 24 h of treatment. However, different from 10b–d, degrader 10a, which contains a hydroxamic acid as ZBG, achieved substantial degradation of HDAC1 with a maximal degradation (D max) value of 74% at 25 μM. Consequently, Compound 10a was selected for further biological evaluations based on the initial screening results.
# as §3
# (§8) The MM.1S cells (3 × 10^6 cells/mL) were seeded into cell culture flasks and, after 72 h, treated with the indicated concentration of compound or DMSO for the given time. Cell lysis was performed with Cell Extraction Buffer and the addition of Halt Protease Inhibitor Cocktail and phenylmethanesulfonyl fluoride. Protein content was determined by Pierce BCA Protein Assay Kit. Samples were denatured by Laemmli 2× Concentrate, and Precision Plus Protein Unstained Standard was used as a molecular weight marker in all cases. SDS‐PAGE was performed with 10% Mini‐PROTEAN TGX Stain‐Free Gel (Catalog# 458035, Bio‐Rad, Hercules, CA, USA) at 200 V for 50 min (Catalog# 458035, Bio‐Rad). Afterwards, proteins were transferred with the Trans‐Blot Turbo Transfer System to Immobilon‐FL PVDF membranes at 1.0 A for 30 min and incubated with 5% milk‐powder solution for 1 h at room temperature under slight agitation. […] The ChemiDoc XRS+ System was used for detection, and Image Lab Software 6.1 (Bio‐Rad, Hercules, CA, USA) for quantification.
# HDAC2 [9] = target: T6, HDAC2; test: HDAC2 degradation, western blot in MM.1S cells; type: cell-based; parameters: endogenous in cells; host or cells: MM.1S
# Experimental: as §2, §3, §8
# T6 sequence (Q92769 whole entry): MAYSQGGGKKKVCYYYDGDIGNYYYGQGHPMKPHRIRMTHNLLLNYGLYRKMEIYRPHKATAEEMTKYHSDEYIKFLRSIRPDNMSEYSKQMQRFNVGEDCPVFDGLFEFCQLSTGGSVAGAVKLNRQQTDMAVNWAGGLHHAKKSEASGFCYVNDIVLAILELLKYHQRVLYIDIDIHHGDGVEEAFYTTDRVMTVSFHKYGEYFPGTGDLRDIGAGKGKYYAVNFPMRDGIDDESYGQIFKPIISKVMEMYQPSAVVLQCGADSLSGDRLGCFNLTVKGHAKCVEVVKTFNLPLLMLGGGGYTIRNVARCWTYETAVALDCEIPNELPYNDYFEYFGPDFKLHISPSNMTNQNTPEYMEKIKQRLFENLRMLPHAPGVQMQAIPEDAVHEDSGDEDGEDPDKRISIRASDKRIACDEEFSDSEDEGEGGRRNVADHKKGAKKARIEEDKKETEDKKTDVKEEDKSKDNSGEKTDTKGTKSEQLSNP
# T5 sequence (Q13547 whole entry): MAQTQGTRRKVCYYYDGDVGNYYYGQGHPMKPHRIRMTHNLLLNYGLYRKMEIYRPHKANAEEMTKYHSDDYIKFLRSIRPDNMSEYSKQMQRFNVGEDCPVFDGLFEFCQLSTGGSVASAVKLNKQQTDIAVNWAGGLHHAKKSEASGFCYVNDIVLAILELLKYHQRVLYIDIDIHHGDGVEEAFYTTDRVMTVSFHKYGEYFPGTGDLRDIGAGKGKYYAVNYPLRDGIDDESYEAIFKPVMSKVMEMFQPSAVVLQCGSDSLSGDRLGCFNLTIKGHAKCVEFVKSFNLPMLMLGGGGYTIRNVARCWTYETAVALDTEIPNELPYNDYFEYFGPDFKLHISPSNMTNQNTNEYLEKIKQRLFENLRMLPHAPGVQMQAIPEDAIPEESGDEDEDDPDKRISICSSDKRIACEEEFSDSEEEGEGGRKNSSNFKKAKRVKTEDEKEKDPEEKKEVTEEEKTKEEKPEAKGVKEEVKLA
# T1 sequence (O15379 whole entry): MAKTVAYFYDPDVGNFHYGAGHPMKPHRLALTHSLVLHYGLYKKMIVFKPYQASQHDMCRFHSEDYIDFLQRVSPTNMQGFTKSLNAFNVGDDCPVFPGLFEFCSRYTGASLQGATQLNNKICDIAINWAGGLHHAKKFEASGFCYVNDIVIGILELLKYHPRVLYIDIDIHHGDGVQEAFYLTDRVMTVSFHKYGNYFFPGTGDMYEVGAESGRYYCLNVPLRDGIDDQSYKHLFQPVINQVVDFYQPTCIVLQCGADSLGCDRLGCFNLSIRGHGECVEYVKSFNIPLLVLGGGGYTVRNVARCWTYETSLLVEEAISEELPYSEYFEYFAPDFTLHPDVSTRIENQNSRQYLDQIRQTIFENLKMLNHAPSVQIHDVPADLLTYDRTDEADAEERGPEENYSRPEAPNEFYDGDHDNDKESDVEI
# T3 sequence (O15379 whole entry): as above
# T3 sequence (Q9Y618 395-489 partner limits assumed): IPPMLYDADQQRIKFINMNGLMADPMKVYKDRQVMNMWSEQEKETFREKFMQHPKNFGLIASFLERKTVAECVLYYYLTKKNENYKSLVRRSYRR
# T2 sequence (P56524 whole entry): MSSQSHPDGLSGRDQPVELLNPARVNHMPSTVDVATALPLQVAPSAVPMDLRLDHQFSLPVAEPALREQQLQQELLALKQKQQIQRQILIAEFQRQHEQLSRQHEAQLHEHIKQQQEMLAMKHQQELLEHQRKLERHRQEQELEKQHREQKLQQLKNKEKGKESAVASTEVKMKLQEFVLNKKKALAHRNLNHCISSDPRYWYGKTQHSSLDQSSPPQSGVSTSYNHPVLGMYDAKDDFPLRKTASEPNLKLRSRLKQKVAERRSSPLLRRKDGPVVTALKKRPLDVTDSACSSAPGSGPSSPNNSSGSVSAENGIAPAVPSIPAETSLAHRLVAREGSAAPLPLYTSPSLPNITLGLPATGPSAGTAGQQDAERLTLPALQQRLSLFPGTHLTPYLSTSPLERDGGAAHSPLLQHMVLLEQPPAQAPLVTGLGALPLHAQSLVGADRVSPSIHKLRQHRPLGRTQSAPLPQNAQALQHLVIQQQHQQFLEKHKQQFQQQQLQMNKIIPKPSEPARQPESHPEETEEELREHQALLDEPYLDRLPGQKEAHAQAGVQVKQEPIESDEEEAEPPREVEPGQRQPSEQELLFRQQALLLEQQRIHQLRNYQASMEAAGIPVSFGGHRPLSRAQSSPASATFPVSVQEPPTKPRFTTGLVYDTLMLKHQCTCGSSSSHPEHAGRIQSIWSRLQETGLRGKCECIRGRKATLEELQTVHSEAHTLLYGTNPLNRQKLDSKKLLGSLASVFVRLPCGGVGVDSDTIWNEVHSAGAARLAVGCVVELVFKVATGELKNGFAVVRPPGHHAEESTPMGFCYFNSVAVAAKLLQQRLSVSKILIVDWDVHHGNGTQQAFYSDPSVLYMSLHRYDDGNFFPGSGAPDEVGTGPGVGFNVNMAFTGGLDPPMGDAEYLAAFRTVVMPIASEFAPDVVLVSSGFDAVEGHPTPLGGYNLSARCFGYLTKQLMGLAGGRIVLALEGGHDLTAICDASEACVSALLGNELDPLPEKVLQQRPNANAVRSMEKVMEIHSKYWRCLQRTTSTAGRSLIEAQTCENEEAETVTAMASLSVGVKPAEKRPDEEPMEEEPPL
IC50 [2],IC50 (HDAC1 [6]),IC50 (HDAC2 [7]),Compound,IC50 (MM.1S cells [1]),level of acetylated histone H3 [3],level of acetylated α-tubulin [4],HDAC1 protein levels (HDAC1 [8]; 25 μM),also measured
,,,O=C(CCCCCCNC(=O)c1cnc(N(c2ccccc2)c2ccccc2)nc1)NO [Ricolinostat],2590 ± 270 nM,,,,
51 ± 4 nM,17 ± 1 nM,88 ± 7 nM,"C=CS(=O)(=O)N1CCN(C(=O)Cc2ccc(NC(=O)CCCCCCC(=O)NO)cc2)CC1 [Compound 10a, N ^1‐Hydroxy‐N ^8‐(4‐{2‐oxo‐2‐[4‐(vinylsulfonyl)piperazin‐1‐yl]ethyl}phenyl)octanediamide]",,pronounced upregulation,pronounced upregulation,induced a reduction of HDAC1 protein levels,"HDAC3 degradation (HDAC3; 6 h): none of the used concentrations resulted in the degradation; HDAC3 protein levels (HDAC3; 24 h): minimal impact; HDAC4 degradation (HDAC4; 6 h): none of the used concentrations resulted in the degradation; HDAC4 protein levels (HDAC4; 24 h): minimal impact; IC50 (MM.1S cells [1]; MM.1S cells, CellTiter-Glo, n = 3, mean ± SD): 6480 ± 1180 nM; IC50 (Human recombinant HDAC6): 27 ± 8 nM; effect on histone H3 acetylation compared with vorinostat [3]: markedly lower than that of vorinostat; hyperacetylation of α-tubulin compared with vorinostat [4]: comparable to its parent inhibitor, vorinostat; apoptosis induction: proportions of early and late apoptotic cells (MM.1S cells [5]): markedly increased; DC50 (HDAC1 [8]; 0.37 up to 30 μM, western blot, read-out: half-maximal degradation concentration (DC50) for HDAC1): 8.8 ± 4.4 µM; Dmax at 25 µM (HDAC1 [8]; MM1.S, 25 μM, western blot, read-out: maximal degradation (Dmax) of HDAC1): 74%; Dmax at 25 µM (HDAC2 [9]; MM1.S, MM.1S cells, 25 μM, 24 h, read-out: maximal degradation (Dmax) of HDAC2): 46%; HDAC2 degradation (HDAC2 [9]; MM.1S cells, 1, 10, 25 μM, 6 h): none of the used concentrations resulted in the degradation; HDAC2 protein levels (HDAC2 [9]; MM.1S cells, 1, 10, 25 μM, 24 h): slightly affected"
323 ± 22 nM,229 ± 4 nM,423 ± 63 nM,"CCS(=O)(=O)N1CCN(C(=O)Cc2ccc(NC(=O)CCCCCCC(=O)NO)cc2)CC1 [10a‐nc, N ^1‐(4‐{2‐[4‐(Ethylsulfonyl)piperazin‐1‐yl]‐2‐Oxoethyl}phenyl)‐N ^8‐Hydroxyoctanediamide]",,,,did not affect HDAC1 levels,
,,,O=C(CCCCCCC(=O)Nc1ccccc1)NO [Vorinostat],790 ± 130 nM,,,,
,,,"C=CS(=O)(=O)N1CCNCC1 [Compound 8, 1‐(Vinylsulfonyl)piperazine, reference compound]",,no effects,no effects,,
